{
  "source": "patent US20240285512A1",
  "about": "“ORAL CARE COMPOSITIONS” (Firmenich SA, priority 2021, published 2024)",
  "assay_type_in_all_cases": "cell-based",
  "key": {"[1]": {"tested_on": "A. oris, A. naeslundii, S. mitis and S. oralis", "assay": "Bacteria adhesion assay, defined inocula (MBEC pegs, saliva pellicle, CFU plating)", "details": "for inhibition at 0.01 % / inhibition at 10000 µM / inhibition at 0.1 %: relative CFU with base designated as 100, read-out: Adhesion Δ (difference in relative biofilm abundance between control base and treatment); for Adhesion Δ (difference in relative biofilm abundance between control base and treatment): relative CFU with base designated as 100", "description": "(§1) A total of 12 bacterial strains were selected based on scientific literature. The strains were grown in media recommended by strain suppliers. Broth cultures were adjusted to log 7 CFU/mL with growth media containing 20% of glycerol. For C. matruchotii growth medium with glycerol was used to wash off the colonies culture plates, the cell suspension was then homogenized by vortexing with glass beads. The aerobic and anaerobic strains were mixed and aliquoted separately. The inocula were stored at −80° C. until use.\n(§2) Saliva and oral inocula preparation. Saliva and oral microflora samples were collected from healthy volunteers by passive drooling using a method described previously. • (a) Bacteria Adhesion assay. Pegs of 96-well MBEC plate (Innovotech, Canada) were submerged in saliva for pellicle formation. Overnight culture of A. oris, A. naeslundii, S. mitis and S. oralis were normalized to OD=0.1 using 0.85% NaCl and mixed in equal proportions. The plates were treated with samples for 2 min and incubated with the culture mixture for 30 min at 37° C. and 5% CO2. The pegs on 96-well plates were then washed 3 times before harvest. • (b) Biofilm formation assay. Saliva-coated 96-well MBEC plates were incubated with inocula anaerobically overnight. The next day, the inoculum was replaced with modified BHI broth (BHI supplemented with 1 g/L mucin, 0.5 mg/L Vitamin K and 10 mg/L hemin). The devices were treated for 2 min twice to mimic the application of dental care products, after which the treatment solution was replaced with fresh modified BHI broth and incubation of the devices was continued. The biofilms were harvested after two days. • (c) Biofilm disruption assay. The inoculation and incubation was done in the same manner as described in the formation assay except that the incubation time was extended to 7 days, after which the mature biofilm was subjected to treatment twice a day as in the formation assay for 3 days before harvest.\n(§3) Biofilm harvest. To harvest the attached cells, the peg of the MBEC device was immersed in 200 μL of saline solution per well. The plates were sonicated in an ultrasonic bath to obtain cell suspension. For the adhesion assay, the suspension was serially diluted and plated on Tryptic Soy Agar using Microlab STAR (Hamilton). For the formation and disruption assays, the suspension was used for SYTO 9 staining using LIVE/DEAD® BacLight Bacterial Viability Kits L7012 (Thermo Fisher Scientific) following manufacturer instructions.\n(§4) The inventors used the assays described above to screen more ingredients for activity in a model mouth wash (Table 5).\n(§5) The compounds and compositions for testing activities in Table 6 were dissolved in DMSO. The rest of the ingredients of mouth rinse in Table 5 were mixed to make a master mix in water and then aliquoted. The DMSO solution was then added to the master mix and homogenized."}, "[2]": {"tested_on": "biofilm of defined inocula (12 bacterial strains of Table 1)", "assay": "Biofilm formation assay, defined inocula (MBEC plates, SYTO 9 fluorescence)", "details": "for inhibition at 0.01 % / inhibition at 10000 µM / inhibition at 0.1 %: read-out: Formation Δ (difference in relative biofilm abundance between control base and treatment); for inhibition at 0.1 %: dosage 0.1%", "description": "as §1, §2, §3, §4, §5"}, "[3]": {"tested_on": "mature biofilm of defined inocula (12 bacterial strains of Table 1)", "assay": "Biofilm disruption assay, defined inocula (7-day mature biofilm, SYTO 9 fluorescence)", "details": "for inhibition at 0.01 % / inhibition at 10000 µM / inhibition at 0.1 %: read-out: Disruption Δ (difference in relative biofilm abundance between control base and treatment); for inhibition at 0.1 %: dosage 0.1%", "description": "as §1, §2, §3, §4, §5"}, "[4]": {"details": "dosage 0.01%, defined inocula, relative fluorescence intensity with base designated as 100"}, "[5]": {"details": "dosage 10 mM in model mouth rinse with DMSO"}, "[6]": {"details": "dosage 10 mM in model mouth rinse with DMSO, defined inocula, relative fluorescence intensity with base designated as 100"}, "[7]": {"details": "defined inocula, relative fluorescence intensity with base designated as 100"}},
  "note": "Where two headings read alike, the source gives them in different places.",
  "data": [
    {"compound": "CCC=CCCOC(C)=O", "note": "[3-HEXENYL ACETATE, 3-hexenyl acetate]", "values": [
      {"measurement": "inhibition at 0.01 %", "setting": "[1]; dosage 0.01%", "result": 32.7, "unit": "%"},
      {"measurement": "inhibition at 0.01 %", "setting": "[2]; [4]", "result": 78.1, "unit": "%"},
      {"measurement": "inhibition at 0.01 %", "setting": "[3]; [4]", "result": 64.7, "unit": "%"}
    ]},
    {"compound": "CC=Cc1ccc(OC)cc1", "note": "[Anethole]", "values": [
      {"measurement": "inhibition at 10000 µM", "setting": "[1]; [5]", "result": 17.4, "unit": "%"},
      {"measurement": "inhibition at 10000 µM", "setting": "[2]; [6]", "result": 53.4, "unit": "%"},
      {"measurement": "inhibition at 10000 µM", "setting": "[3]; [6]", "result": 77.4, "unit": "%"}
    ]},
    {"compound": "CC(=O)/C=C/C1=C(C)CCCC1(C)C", "note": "[BETA IONONE, (3E)-4-(2,6,6-Trimethylcyclohex-1-en-1-yl)but-3-en-2-one]", "values": [
      {"measurement": "inhibition at 0.01 %", "setting": "[1]; dosage 0.01%", "result": 19.4, "unit": "%"},
      {"measurement": "inhibition at 0.01 %", "setting": "[2]; [4]", "result": 80.8, "unit": "%"},
      {"measurement": "inhibition at 0.01 %", "setting": "[3]; [4]", "result": 61.8, "unit": "%"}
    ]},
    {"compound": "O=CC=Cc1ccccc1", "note": "[Cinnamaldehyde]", "values": [
      {"measurement": "inhibition at 0.1 %", "setting": "[1]; dosage 0.1%", "result": -9.1, "unit": "%"},
      {"measurement": "inhibition at 0.1 %", "setting": "[2]; [7]", "result": 83.3, "unit": "%"},
      {"measurement": "inhibition at 0.1 %", "setting": "[3]; [7]", "result": 48.2, "unit": "%"}
    ]},
    {"compound": "CC(C)=CCCC(C)CCO", "note": "(centres unmarked) [Citronellol]", "values": [
      {"measurement": "inhibition at 10000 µM", "setting": "[1]; [5]", "result": 91.7, "unit": "%"},
      {"measurement": "inhibition at 10000 µM", "setting": "[2]; [6]", "result": 58.1, "unit": "%"},
      {"measurement": "inhibition at 10000 µM", "setting": "[3]; [6]", "result": 67, "unit": "%"}
    ]},
    {"compound": "CCCCCCCCCC(=O)O", "note": "[Decanoic acid]", "values": [
      {"measurement": "inhibition at 10000 µM", "setting": "[2]; [6]", "result": 93.3, "unit": "%"},
      {"measurement": "inhibition at 10000 µM", "setting": "[3]; [6]", "result": 89.8, "unit": "%"}
    ]},
    {"compound": "CC(C)=CCC/C(C)=C/CO", "note": "[GERANIOL, Geraniol]", "values": [
      {"measurement": "inhibition at 0.01 %", "setting": "[1]; dosage 0.01%", "result": 32.1, "unit": "%"},
      {"measurement": "inhibition at 0.01 %", "setting": "[2]; [4]", "result": 84.7, "unit": "%"},
      {"measurement": "inhibition at 0.01 %", "setting": "[3]; [4]", "result": 61.7, "unit": "%"}
    ]},
    {"compound": "CC(C)CCO", "note": "[ISOAMYL ALCOHOL, Isoamyl alcohol]", "values": [
      {"measurement": "inhibition at 0.1 %", "setting": "[1]; dosage 0.1%", "result": 63.7, "unit": "%"},
      {"measurement": "inhibition at 0.1 %", "setting": "[2]; [7]", "result": 82.3, "unit": "%"},
      {"measurement": "inhibition at 0.1 %", "setting": "[3]; [7]", "result": 57.4, "unit": "%"}
    ]},
    {"compound": "CCCCCC1C(=O)CCC1CC(=O)OC", "note": "(centres unmarked) [Methyl (2-pentyl-3-oxocyclopentyl) acetate]", "values": [
      {"measurement": "Adhesion Δ (difference in relative biofilm abundance between control base and treatment)", "setting": "[1]; dosage 0.01%", "result": 37.1},
      {"measurement": "Formation Δ (difference in relative biofilm abundance between control base and treatment)", "setting": "[2]; [4]", "result": 86.3},
      {"measurement": "Disruption Δ (difference in relative biofilm abundance between control base and treatment)", "setting": "[3]; [4]", "result": 63.2}
    ]},
    {"compound": "CCCCCCCCCCCCCC(=O)O", "note": "[Myristic Acid, Myristic acid]", "values": [
      {"measurement": "inhibition at 10000 µM", "setting": "[1]; [5]", "result": 33.3, "unit": "%"},
      {"measurement": "inhibition at 10000 µM", "setting": "[2]; [6]", "result": 64.9, "unit": "%"},
      {"measurement": "inhibition at 10000 µM", "setting": "[3]; [6]", "result": 87.9, "unit": "%"}
    ]},
    {"compound": "C=C(C)[C@@H]1CCC2=CC(=O)C[C@@H](C)[C@]2(C)C1", "note": "[Nootkatone]", "values": [
      {"measurement": "inhibition at 10000 µM", "setting": "[1]; [5]", "result": 86.4, "unit": "%"},
      {"measurement": "inhibition at 10000 µM", "setting": "[2]; [6]", "result": 20.3, "unit": "%"},
      {"measurement": "inhibition at 10000 µM", "setting": "[3]; [6]", "result": 63.1, "unit": "%"}
    ]},
    {"compound": "CCCCC1CCC(=O)O1", "note": "(centres unmarked) [OCTALACTONE, Gamma octalactone]", "values": [
      {"measurement": "Adhesion Δ (difference in relative biofilm abundance between control base and treatment)", "setting": "[1]; dosage 0.01%", "result": 63.5},
      {"measurement": "Formation Δ (difference in relative biofilm abundance between control base and treatment)", "setting": "[2]; [4]", "result": 89.1},
      {"measurement": "Disruption Δ (difference in relative biofilm abundance between control base and treatment)", "setting": "[3]; [4]", "result": 74.1}
    ]},
    {"compound": "Cc1ccc(C(C)C)c(O)c1", "note": "[THYMOL, Thymol]", "values": [
      {"measurement": "inhibition at 0.1 %", "setting": "[1]; dosage 0.1%", "result": 5.7, "unit": "%"},
      {"measurement": "inhibition at 0.1 %", "setting": "[2]; [7]", "result": 86.7, "unit": "%"},
      {"measurement": "inhibition at 0.1 %", "setting": "[3]; [7]", "result": 72, "unit": "%"}
    ]},
    {"compound": "CC/C=C\\CCOC(=O)CCCCC", "note": "[cis-3-hexenylhexanoate]", "values": [
      {"measurement": "Adhesion Δ (difference in relative biofilm abundance between control base and treatment)", "setting": "[1]; [5]", "result": 9.1},
      {"measurement": "Formation Δ (difference in relative biofilm abundance between control base and treatment)", "setting": "[2]; [6]", "result": 58.1},
      {"measurement": "Disruption Δ (difference in relative biofilm abundance between control base and treatment)", "setting": "[3]; [6]", "result": 75.3}
    ]},
    {"compound": "CCCCCCCCCCC(=O)O", "note": "[undecanoic acid, Undecanoic acid]", "values": [
      {"measurement": "inhibition at 10000 µM", "setting": "[1]; [5]", "result": 98.8, "unit": "%"},
      {"measurement": "inhibition at 10000 µM", "setting": "[2]; [6]", "result": 87.5, "unit": "%"},
      {"measurement": "inhibition at 10000 µM", "setting": "[3]; [6]", "result": 89.1, "unit": "%"}
    ]},
    {"compound": "Butanol", "values": [
      {"measurement": "Adhesion Δ (difference in relative biofilm abundance between control base and treatment)", "setting": "[1]; dosage 0.1%", "result": 56.8},
      {"measurement": "Formation Δ (difference in relative biofilm abundance between control base and treatment)", "setting": "[2]", "result": 83.5},
      {"measurement": "Disruption Δ (difference in relative biofilm abundance between control base and treatment)", "setting": "[3]", "result": 59.5}
    ]}
  ]
}
